Read-outs that look alike come from different tables or passages of the source. One block for each compound: values may come before it. Numbered stars: 1 amine (or outer) side, 2 acyl side, 3 side chain; on linkers, the order of the positions; unused ones are H or OH. Square brackets hold non-standard residues; d marks the D form. Side chains are listed from the residue outwards. Peptide text beside a SMILES is read from it. * marks the point of attachment. Phe(2-NO2) = N[C@@H](Cc1ccccc1[N+](=O)[O-])C(=O)O; Bip = N[C@@H](Cc1ccc(-c2ccccc2)cc1)C(=O)O; C18 diacid = O=C(O)CCCCCCCCCCCCCCCCC(=O)*; Hydrocinnamoyl(4-I) = O=C(CCc1ccc(I)cc1)*; X1 = C[C@@](CCc1ccccc1)(N[*:1])C(=O)[*:2]; αMePhe(2-F) = C[C@](N)(Cc1ccccc1F)C(=O)O; γGlu = O=C(O)[C@H](CCC(=O)[*:2])N[*:1]; Phe(2-F) = N[C@@H](Cc1ccccc1F)C(=O)O; hPhe = N[C@@H](CCc1ccccc1)C(=O)O; αMeP = C[C@@]1(C(=O)O)CCCN1; AEEA = NCCOCCOCC(=O)O; Aib = CC(C)(N)C(=O)O
Molecular target: T1, hGLP1 receptor (Homo sapiens, UniProt P43220)
T1 construct: expressed in transfected cells; host or cells: HEK (human embryonic kidney) cells co-expressing hGLP1 receptor and CRE-Luciferase
Test: cAMP HTRF agonist assay in HEK cells co-expressing hGLP1 receptor and CRE-Luciferase
Assay type: cell-based
Procedure: Human embryonic kidney cells (HEK) co-expressing the hGLP1 receptor and CRE-Luciferase construct were used to determine agonist potency in this assay. The cells were thawed briefly at 37° C., transferred to a sterile tube and re-suspended in complete media at 37° C. Cells were centrifuged at 1000 rpm for 5 minutes and cells collected; cells were re-suspended in assay buffer consisting of DPBS (GIBCO) with 500 μM of the phosphodiesterase inhibitor IBMX. […] The optimal cell density was determined to be 1000 cells/well; cells were added to wells in 384-well plates containing appropriate pre-prepared dilutions of compounds (test peptides or reference compound exendin-4), sealed and incubated with CO2 for 30 min. Test peptide solutions were diluted from 10 mM stock solutions; for most peptides an initial run was performed in duplicate from a maximal concentration of 1.0 μM, with 11 concentrations tested for each peptide using serial 1:3 dilution from this maximal concentration. […] The agonist assay was a homogeneous time-resolved fluorescence (HTRF) assay (Cisbio).
Following incubation of the cells for 30 minutes with test or reference peptides, 5 μL of the cAMP acceptor cAMP-d2, prepared previously as a working solution from frozen stock (1:20 dilution), was added to each well of the assay plate, along with 5 μL of anti-cAMP antibody-cryptate working solution (diluted 1:20 from frozen stock). The wells were incubated for 1 hour at room temperature, and fluorescence was then read at 665 and 615 nm with an Envision reader with TRF laser. Data were saved and analyzed using Prism software (GraphPad). Concentration-response analysis was performed using 4-parameter logistic fits of the resulting data, and EC50 values obtained for each test and reference compound.

[1] = cAMP EC50, nM (0.1% albumin), Table 2, 0.1% albumin
[2] = cAMP EC50, nM (0.1% albumin), Table 1, 0.1% albumin
[3] = cAMP EC50, nM (0.1% albumin), Table 4, 0.1% albumin
[4] = cAMP EC50, nM (0.1% albumin), Table 6, 0.1% albumin
[5] = Table 5, 0% albumin, read-out: cAMP EC50, nM (0% albumin)

T1 sequence (P43220 24-463): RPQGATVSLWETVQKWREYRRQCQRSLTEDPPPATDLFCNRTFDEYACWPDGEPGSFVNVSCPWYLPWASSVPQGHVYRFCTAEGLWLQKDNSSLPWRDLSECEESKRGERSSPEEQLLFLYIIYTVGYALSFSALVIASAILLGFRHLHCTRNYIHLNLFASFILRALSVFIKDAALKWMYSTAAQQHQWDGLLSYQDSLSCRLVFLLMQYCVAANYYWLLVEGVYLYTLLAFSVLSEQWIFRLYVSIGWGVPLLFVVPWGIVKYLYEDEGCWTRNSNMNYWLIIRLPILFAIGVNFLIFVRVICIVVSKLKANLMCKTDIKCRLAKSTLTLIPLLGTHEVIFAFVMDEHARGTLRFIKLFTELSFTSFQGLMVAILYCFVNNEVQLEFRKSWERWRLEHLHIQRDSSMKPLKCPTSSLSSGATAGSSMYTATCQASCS

Compound: C[C@@H](O)[C@H](NC(=O)[C@](C)(Cc1ccccc1F)NC(=O)C(C)(C)NC(=O)CNC(=O)[C@H](CCC(=O)O)NC(=O)C(C)(C)NC(=O)[C@@H](N)Cc1c[nH]cn1)C(=O)N[C@@H](CO)C(=O)N[C@@H](CC(=O)O)C(=O)N[C@@H](Cc1ccc(-c2ccccc2)cc1)C(=O)N[C@@H](Cc1ccc(-c2ccccc2)cc1)C(N)=O [3-33, H2N-His-Aib-Glu-Gly-Aib-αMePhe(2-F)-Thr-Ser-Asp-Bip-Bip-C(O)NH2] (H-H[Aib]EG[Aib][αMePhe(2-F)]TSD[Bip][Bip]-NH2)
EC50 (cAMP EC50, nM (0.1% albumin), Table 3, 0.1% albumin): 7.3 nM

Compound: C[C@H](NC(=O)[C@H](CC(=O)O)NC(=O)[C@H](CO)NC(=O)[C@@H](NC(=O)[C@H](Cc1ccccc1F)NC(=O)[C@@H](NC(=O)CNC(=O)[C@H](CCC(=O)O)NC(=O)C(C)(C)NC(=O)[C@@H](N)Cc1c[nH]cn1)[C@@H](C)O)[C@@H](C)O)C(=O)N[C@@H](Cc1ccc(-c2ccccc2)cc1)C(N)=O [3-28, H2N-His-Aib-Glu-Gly-Thr-Phe(2-F)-Thr-Ser-Asp-Ala-Bip-C(O)NH2] (H-H[Aib]EGT[Phe(2-F)]TSDA[Bip]-NH2)
EC50 [1]: > 1000 nM

Compound: C[C@@H](O)[C@H](NC(=O)CNC(=O)[C@H](CCC(=O)O)NC(=O)C(C)(C)NC(=O)[C@@H](N)Cc1c[nH]cn1)C(=O)N[C@@H](Cc1ccccc1[N+](=O)[O-])C(=O)N[C@H](C(=O)N[C@@H](CO)C(=O)N[C@@H](CC(=O)O)C(=O)N[C@@H](Cc1ccc(-c2ccccc2)cc1)C(=O)N[C@@H](Cc1ccc(-c2ccccc2)cc1)C(N)=O)[C@@H](C)O [3-5, H2N-His-Aib-Glu-Gly-Thr-Phe(2-NO2)-Thr-Ser-Asp-Bip-Bip-C(O)NH2] (H-H[Aib]EGT[Phe(2-NO2)]TSD[Bip][Bip]-NH2)
EC50 [2]: 6.67 nM

Compound: CC(C)C[C@H](NC(=O)[C@@H](N)Cc1c[nH]cn1)C(=O)NC(C)(C)C(=O)N[C@@H](CC(=O)O)C(=O)NCC(=O)N[C@H](C(=O)N[C@@](C)(Cc1ccccc1F)C(=O)N[C@H](C(=O)N[C@@H](CO)C(=O)N[C@@H](CC(=O)O)C(=O)N[C@@H](Cc1ccc(-c2ccccc2)cc1)C(=O)N[C@@H](Cc1ccc(-c2ccccc2)cc1)C(N)=O)[C@@H](C)O)[C@@H](C)O [2-9, H2N-His-Leu-Aib-Asp-Gly-Thr-α-MePhe(2-F)-Thr-Ser-Asp-Bip-Bip-C(O)NH2] (H-HL[Aib]DGT[αMePhe(2-F)]TSD[Bip][Bip]-NH2)
EC50 [3]: 6.4 nM

Compound: C[C@@H](O)[C@H](NC(=O)CNC(=O)[C@H](CCC(=O)O)NC(=O)C(C)(C)NC(=O)[C@@H](N)Cc1c[nH]cn1)C(=O)N[C@@H](Cc1ccc(-c2ccccc2)cc1)C(=O)N[C@H](C(=O)N[C@@H](CO)C(=O)N[C@@H](CC(=O)O)C(=O)N[C@@H](Cc1ccc(-c2ccccc2)cc1)C(=O)N[C@@H](Cc1ccc(-c2ccccc2)cc1)C(N)=O)[C@@H](C)O [3-15, H2N-His-Aib-Glu-Gly-Thr-Bip-Thr-Ser-Asp-Bip-Bip-C(O)NH2] (H-H[Aib]EGT[Bip]TSD[Bip][Bip]-NH2)
EC50 [2]: 26.2 nM

Compound: C[C@H](NC(=O)[C@H](Cc1ccccc1F)NC(=O)[C@@H](NC(=O)CNC(=O)[C@H](CCC(=O)O)NC(=O)C(C)(C)NC(=O)[C@@H](N)Cc1c[nH]cn1)[C@@H](C)O)C(=O)N[C@@H](CO)C(=O)N[C@@H](CC(=O)O)C(=O)N[C@@H](Cc1ccc(-c2ccccc2)cc1)C(=O)N[C@@H](Cc1ccc(-c2ccccc2)cc1)C(N)=O [3-25, H2N-His-Aib-Glu-Gly-Thr-Phe(2-F)-Ala-Ser-Asp-Bip-Bip-C(O)NH2] (H-H[Aib]EGT[Phe(2-F)]ASD[Bip][Bip]-NH2)
EC50 [1]: 79.1 nM

Compound: C[C@@H](O)[C@H](NC(=O)CNC(=O)[C@H](CCC(=O)O)NC(=O)C(C)(C)NC(=O)[C@@H](N)Cc1c[nH]cn1)C(=O)N[C@@H](Cc1ccccc1)C(=O)N[C@H](C(=O)N[C@@H](CO)C(=O)N[C@@H](CC(=O)O)C(=O)N[C@@H](Cc1ccc(-c2ccccc2)cc1)C(=O)N[C@@H](Cc1ccc(-c2ccccc2)cc1)C(N)=O)[C@@H](C)O [1-1, H2N-His-Aib-Glu-Gly-Thr-Phe-Thr-Ser-Asp-Bip-Bip-C(O)NH2] (H-H[Aib]EGTFTSD[Bip][Bip]-NH2)
EC50 [5]: 6.82 nM
EC50 [2]: 6.82 nM

Compound: C[C@@H](O)[C@H](NC(=O)CNC(=O)[C@H](CCC(=O)O)NC(=O)C(C)(C)NC(=O)[C@@H](N)Cc1c[nH]cn1)C(=O)N[C@@](C)(Cc1ccccc1F)C(=O)N[C@H](C(=O)N[C@@H](CO)C(=O)N[C@@H](CC(=O)O)C(=O)N[C@@H](CCc1ccccc1)C(=O)N[C@@H](Cc1ccc(-c2ccccc2)cc1)C(N)=O)[C@@H](C)O [1-3, H2N-His-Aib-Glu-Gly-Thr-α-MePhe(2-F)-Thr-Ser-Asp-Hph-Bip-C(O)NH2] (H-H[Aib]EGT[αMePhe(2-F)]TSD[hPhe][Bip]-NH2)
EC50 [5]: 11 nM

Compound: C[C@@H](O)[C@H](NC(=O)CNC(=O)[C@H](CCC(=O)O)NC(=O)C1(C)CCCN1C(=O)[C@@H](N)Cc1c[nH]cn1)C(=O)NC(C)(Cc1ccccc1F)C(=O)N[C@H](C(=O)N[C@@H](CO)C(=O)N[C@@H](CC(=O)O)C(=O)NC(C)(C)C(=O)N[C@@H](Cc1ccc(-c2ccccc2)cc1)C(N)=O)[C@@H](C)O (stereo partly drawn) [3-60, H2N-His-α-MePro-Glu-Gly-Thr-α-MePhe(2-F)-Thr-Ser-Asp-Aib-Bip-C(O)NH2]
EC50 [3]: > 1000 nM

Compound: C[C@@H](O)[C@H](NC(=O)CNC(=O)[C@H](CCC(=O)O)NC(=O)C(C)(C)NC(=O)[C@@H](N)Cc1c[nH]cn1)C(=O)N[C@@](C)(Cc1ccccc1F)C(=O)N[C@@H](CC(N)=O)C(=O)N[C@@H](CO)C(=O)N[C@@H](CC(=O)O)C(=O)N[C@@H](Cc1ccc(-c2ccccc2)cc1)C(=O)N[C@@H](Cc1ccc(-c2ccccc2)cc1)C(N)=O [3-62, H2N-His-Aib-Glu-Gly-Thr-α-MePhe(2-F)-Asn-Ser-Asp-Bip-Bip-C(O)NH2] (H-H[Aib]EGT[αMePhe(2-F)]NSD[Bip][Bip]-NH2)
EC50 [3]: 3.1 nM

Other lines, results leading:

EC50 [4]: 2.6 nM
Compound: C[C@@H](O)[C@H](NC(=O)CNC(=O)[C@H](CCC(=O)O)NC(=O)[C@]1(C)CCCN1C(=O)[C@@H](N)Cc1c[nH]cn1)C(=O)N[C@@](C)(Cc1ccccc1F)C(=O)N[C@H](C(=O)N[C@@H](CO)C(=O)N[C@@H](CC(=O)O)C(=O)N[C@@H](Cc1ccc(-c2ccccc2)cc1)C(=O)N[C@@H](Cc1ccc(-c2ccccc2)cc1)C(=O)NC(C)(C)C(=O)NCCOCCOCC(=O)N[C@@H](CCCCNC(=O)CCc1ccc(I)cc1)C(N)=O)[C@@H](C)O [4-68, H2N-His-α-MePro-Glu-Gly-Thr-α-MePhe(2-F)-Thr-Ser-Asp-Bip-Bip-C(O)NH-RY24] (H-H[αMeP]EGT[αMePhe(2-F)]TSD[Bip][Bip][Aib][AEEA]K(Hydrocinnamoyl(4-I))-NH2)

EC50 [4]: 31.2 nM
Compound: C[C@@H](O)[C@H](NC(=O)CNC(=O)[C@H](CCC(=O)O)NC(=O)C(C)(C)NC(=O)[C@@H](N)Cc1c[nH]cn1)C(=O)N[C@@](C)(Cc1ccccc1F)C(=O)N[C@H](C(=O)N[C@@H](CO)C(=O)N[C@@H](CC(=O)O)C(=O)N[C@@H](Cc1ccc(-c2ccccc2)cc1)C(=O)N[C@@H](Cc1ccc(-c2ccccc2)cc1)C(=O)NCCOCCOCC(=O)NCCOCCOCC(=O)NCCOCCOCC(=O)N[C@@H](CCCCN)C(N)=O)[C@@H](C)O [4-31, H2N-His-Aib-Glu-Gly-Thr-α-MePhe(2F)-Thr-Ser-Asp-Bip-Bip-C(O)(AEEA)3-Lys-NH2] (H-H[Aib]EGT[αMePhe(2-F)]TSD[Bip][Bip][AEEA][AEEA][AEEA]K-NH2)

EC50 [5]: 5.5 nM
Compound: C[C@@H](O)[C@H](NC(=O)CNC(=O)[C@H](CCC(=O)O)NC(=O)C(C)(C)NC(=O)[C@@H](N)Cc1c[nH]cn1)C(=O)N[C@@](C)(Cc1ccccc1F)C(=O)N[C@H](C(=O)N[C@@H](CO)C(=O)N[C@@H](CC(=O)O)C(=O)N[C@@H](Cc1ccc(-c2ccccc2)cc1)C(=O)N[C@@](C)(CCc1ccccc1)C(N)=O)[C@@H](C)O [4-2, H2N-His-Aib-Glu-Gly-Thr-α-MePhe(2-F)-Thr-Ser-Asp-Bip-α-MeHph-C(O)NH2] (H-H[Aib]EGT[αMePhe(2-F)]TSD[Bip][X1]-NH2)

EC50 [4]: 16.1 nM
Compound: C[C@@H](O)[C@H](NC(=O)CNC(=O)[C@H](CCC(=O)O)NC(=O)C(C)(C)NC(=O)[C@@H](N)Cc1c[nH]cn1)C(=O)N[C@@](C)(Cc1ccccc1F)C(=O)N[C@H](C(=O)N[C@@H](CO)C(=O)N[C@@H](CC(=O)O)C(=O)N[C@@H](Cc1ccc(-c2ccccc2)cc1)C(=O)N[C@@H](Cc1ccc(-c2ccccc2)cc1)C(=O)N[C@@H](CCCCN)C(N)=O)[C@@H](C)O [4-28, H2N-His-Aib-Glu-Gly-Thr-α-MePhe(2F)-Thr-Ser-Asp-Bip-Bip-Lys-NH2] (H-H[Aib]EGT[αMePhe(2-F)]TSD[Bip][Bip]K-NH2)

EC50 [4]: 5 nM
Compound: C[C@@H](O)[C@H](NC(=O)CNC(=O)[C@H](CCC(=O)O)NC(=O)C(C)(C)NC(=O)[C@@H](N)Cc1c[nH]cn1)C(=O)N[C@@](C)(Cc1ccccc1F)C(=O)N[C@H](C(=O)N[C@@H](CO)C(=O)N[C@@H](CC(=O)O)C(=O)N[C@@H](Cc1ccc(-c2ccccc2)cc1)C(=O)N[C@@H](Cc1ccc(-c2ccccc2)cc1)C(=O)N[C@@H](CCCCNC(=O)COCCOCCNC(=O)COCCOCCNC(=O)CC[C@H](NC(=O)CCCCCCCCCCCCCCCCC(=O)O)C(=O)O)C(N)=O)[C@@H](C)O [4-49, H2N-His-Aib-Glu-Gly-Thr-α-MePhe(2-F)-Thr-Ser-Asp-Bip-Bip-C(O)NH-RY11] (H-H[Aib]EGT[αMePhe(2-F)]TSD[Bip][Bip]K([AEEA-AEEA-γGlu-C18 diacid])-NH2)

Source: US20230015478A1, “GLP-1 RECEPTOR AGONISTS HAVING IMPROVED PHARMACOLOGICAL AND DRUG DELIVERY PROPERTIES” (priority 2021, published 2023)
